Laboratory results from US20020137154A1, “Methods for improving cell growth and alcohol production during fermentation” (priority 2000, published 2002).

Test system: recombinant Escherichia coli KO11
Assay: Batch fermentation of E. coli KO11 in Luria broth and xylose with nutrient additives: ethanol production and cell growth
Format: cell-based
Settings: LB+xylose
Experimental: Two types of media were tested: 1% CSL and Luria broth (LB). Each contained 97 g of either xylose or glucose per liter. Luria Broth consists of, per liter: 10 g Difco® Tryptone, 5 g Difco® Yeast Extract and 5 g NaCl. The 1% CSL medium consists of Corn Steep Liquor (1% w/v) plus mineral salts (mineral salts per liter: 1 g of KH2PO4. 0.5 g of K2HPO4, 3.1 g of (NH4)2SO4, 0.4 g of MgCl2·6H2), and 20 mg FeCl3·6H2O).
Luria Broth was prepared by autoclaving a 2× nutrient stock containing, per liter: 20 g Difco® Tryptone, 10 g Difo® Yeast Extract, and 10 g NaCl. Sugars (xylose or glucose) were autoclaved separately. A 1% CSL medium was prepared as follows: Commercial Corn Steep Liquor (CSL; 50% dry weight/50% water) was diluted with tap water to make a 20X stock containing 100 g dry weight of Corn Steep Liquor/L and was adjusted to pH 7.2 with NaOH (50%). After sterilization by autoclaving, the 20X CSL stock was clarified by centrifugation at 5000×g for 10 minutes. Magnesium was added as a 100× stock solution (40 g/L MgCl2·6H2O). Iron was added as a 1000× stock solution made by dissolving 20 g FeCl3·6H2O in 175 mL of HCl and adjusting to 1 L with sterile water. Nitrogen, sulfur and phosphorus were added using a 20× stock solution containing the following (per liter): 20 g of KH2PO4, 10 g of K2HPO4 and 62 g of (NH4)2SO4. Stock solutions containing minerals were sterilized separately by autoclaving. Final media was prepared by adding 750 mL of water to 1 L bottle containing 100 g of xylose or glucose.
Inocula were grown in same media used for fermentation and were prepared as follows. Three colonies from a fresh plate were used to inoculate seed cultures: 250-mL flask containing 100 mL medium. These cultures were grown with agitation (120 rpm) for 12-16 hours at 35° C. to a final OD550nm of approximately 2.0-2.5. Cells were harvested by centrifugation at 5000×g for 5 minutes, and resuspended in fresh media to an OD550nm of 0.1. The resulting suspension was distributed into 500-mL beakers containing 345 ml each of fermentation medium. Acetaldehyde was added as indicated. Batch fermentations (35° C., 100 rpm) were maintained at pH 6.5 by the automatic addition of 2N KOH. Cell mass, ethanol, and base addition (2N KOH) were recorded during 96 hours of incubation.
Equivalent amounts of distilled water were added instead of the acetaldehyde in control experiments.
Additives (e.g., as listed in Table 1) were dissolved in 5 mL di-H2O. Solutions with pH lower than 5 were neutralized to pH 6.5 with 2N KOH. Nutritional supplements were then filter-sterilized (0.45 μm filter disk) directly into the fermentation vessel containing the culture. The final concentration of all additives in the culture medium was 2 g/L unless otherwise indicated.
Cell mass was estimated by measuring OD550nm using Baush & Lomb® Spectronic 70 spectrophotometer. […] Ethanol was measured by gas chromatography using a Varian® 3400 CX gas chromatograph with 1-propanol as an internal standard.
Tables 1, 3, and 5 show time to completion of fermentation, ethanol production, and volumetric productivity of the fermentation for all concentrations of the compound and the control. Maximum ethanol production is shown in grams/liter (g/L). The ethanol yield is shown in grams of ethanol/grams of added sugar. Maximum volumetric productivity is shown in grams ethanol/(liter)(hour). The average productivity is calculated form the start of fermentation to the completion of fermentation is grams ethanol/(liter)hour).
Tables 2, 4, and 6 show the initial growth of the cells (OD taken after the first 24 hours of fermentation) and the maximum cell density (the time which culture reaches the maximum OD value).
Acetaldehyde was added to the fermentation medium at five different concentrations and time points. […] Where two additions are indicated, the first volume was added at the start of fermentation and the second was added after 8 hours of fermentation.

CC=O [Acetaldehyde, acetaldehyde]
Ethanol Production Maximum (0.25 g/L at start): 43.80 g/L
Ethanol Production Maximum % Control (0.25 g/L at start): 101.68%
Ethanol yield (0.25 g/L at start): 0.451 grams of ethanol/grams of added sugar
Initial Growth (OD at 24 h) % Control (0.25 g/L at start): 110.79%
Initial Growth (OD at 24 h) OD (0.25 g/L at start): 11.07 OD
Maximum Cell Density % Control (0.25 g/L at start): 100.20%
Maximum Cell Density OD (0.25 g/L at start): 11.07 OD
Maximum Cell Density Time (0.25 g/L at start): 24 h
Time to completion (0.25 g/L at start): 48 h
Volumetric Productivity Average (0.25 g/L at start): 0.913 grams ethanol/(liter)(hour)
Volumetric Productivity Average % Control (0.25 g/L at start): 101.68%
Volumetric Productivity Maximum (0.25 g/L at start): 1.352 grams ethanol/(liter)(hour)
Volumetric Productivity Maximum % Control (0.25 g/L at start): 117.36%
Ethanol Production Maximum (0.5 + 0.25 g/L (start, 8 h)): 41.40 g/L
Ethanol Production Maximum % Control (0.5 + 0.25 g/L (start, 8 h)): 96.11%
Ethanol yield (0.5 + 0.25 g/L (start, 8 h)): 0.426 grams of ethanol/grams of added sugar
Initial Growth (OD at 24 h) % Control (0.5 + 0.25 g/L (start, 8 h)): 99.02%
Initial Growth (OD at 24 h) OD (0.5 + 0.25 g/L (start, 8 h)): 9.89 OD
Maximum Cell Density % Control (0.5 + 0.25 g/L (start, 8 h)): 97.92%
Maximum Cell Density OD (0.5 + 0.25 g/L (start, 8 h)): 10.81 OD
Maximum Cell Density Time (0.5 + 0.25 g/L (start, 8 h)): 48 h
Time to completion (0.5 + 0.25 g/L (start, 8 h)): 48 h
Volumetric Productivity Average (0.5 + 0.25 g/L (start, 8 h)): 0.863 grams ethanol/(liter)(hour)
Volumetric Productivity Average % Control (0.5 + 0.25 g/L (start, 8 h)): 96.11%
Volumetric Productivity Maximum (0.5 + 0.25 g/L (start, 8 h)): 0.904 grams ethanol/(liter)(hour)
Volumetric Productivity Maximum % Control (0.5 + 0.25 g/L (start, 8 h)): 78.52%
Ethanol Production Maximum (0.5 + 0.5 g/L (start, 8 h)): 41.64 g/L
Ethanol Production Maximum % Control (0.5 + 0.5 g/L (start, 8 h)): 96.65%
Ethanol yield (0.5 + 0.5 g/L (start, 8 h)): 0.429 grams of ethanol/grams of added sugar
Initial Growth (OD at 24 h) % Control (0.5 + 0.5 g/L (start, 8 h)): 106.98%
Initial Growth (OD at 24 h) OD (0.5 + 0.5 g/L (start, 8 h)): 10.68 OD
Maximum Cell Density % Control (0.5 + 0.5 g/L (start, 8 h)): 106.68%
Maximum Cell Density OD (0.5 + 0.5 g/L (start, 8 h)): 11.78 OD
Maximum Cell Density Time (0.5 + 0.5 g/L (start, 8 h)): 48 h
Time to completion (0.5 + 0.5 g/L (start, 8 h)): 48 h
Volumetric Productivity Average (0.5 + 0.5 g/L (start, 8 h)): 0.867 grams ethanol/(liter)(hour)
Volumetric Productivity Average % Control (0.5 + 0.5 g/L (start, 8 h)): 96.65%
Volumetric Productivity Maximum (0.5 + 0.5 g/L (start, 8 h)): 0.890 grams ethanol/(liter)(hour)
Volumetric Productivity Maximum % Control (0.5 + 0.5 g/L (start, 8 h)): 77.26%
Ethanol Production Maximum (0.5 g/L at start): 42.59 g/L
Ethanol Production Maximum % Control (0.5 g/L at start): 98.88%
Ethanol yield (0.5 g/L at start): 0.438 grams of ethanol/grams of added sugar
Initial Growth (OD at 24 h) % Control (0.5 g/L at start): 108.77%
Initial Growth (OD at 24 h) OD (0.5 g/L at start): 10.86 OD
Maximum Cell Density % Control (0.5 g/L at start): 107.97%
Maximum Cell Density OD (0.5 g/L at start): 11.92 OD
Maximum Cell Density Time (0.5 g/L at start): 48 h
Time to completion (0.5 g/L at start): 48 h
Volumetric Productivity Average (0.5 g/L at start): 0.887 grams ethanol/(liter)(hour)
Volumetric Productivity Average % Control (0.5 g/L at start): 98.88%
Volumetric Productivity Maximum (0.5 g/L at start): 1.027 grams ethanol/(liter)(hour)
Volumetric Productivity Maximum % Control (0.5 g/L at start): 89.20%
ethanol production as compared to the control (0.5 g/L at the start): highest amount of ethanol production
initial growth and maximum cell density as compared to the control (0.5 g/L at the start): greatest initial growth and maximum cell density
Ethanol Production Maximum (0.75 g/L at start): 42.65 g/L
Ethanol Production Maximum % Control (0.75 g/L at start): 99.00%
Ethanol yield (0.75 g/L at start): 0.439 grams of ethanol/grams of added sugar
Initial Growth (OD at 24 h) % Control (0.75 g/L at start): 105.54%
Initial Growth (OD at 24 h) OD (0.75 g/L at start): 10.54 OD
Maximum Cell Density % Control (0.75 g/L at start): 110.94%
Maximum Cell Density OD (0.75 g/L at start): 12.25 OD
Maximum Cell Density Time (0.75 g/L at start): 48 h
Time to completion (0.75 g/L at start): 48 h
Volumetric Productivity Average (0.75 g/L at start): 0.889 grams ethanol/(liter)(hour)
Volumetric Productivity Average % Control (0.75 g/L at start): 99.00%
Volumetric Productivity Maximum (0.75 g/L at start): 0.916 grams ethanol/(liter)(hour)
Volumetric Productivity Maximum % Control (0.75 g/L at start): 79.50%
